Results as given in ChEMBL document CHEMBL5143510, “Structure modification and biological evaluation of indole-chalcone derivatives as anti-tumor agents through dual targeting tubulin and TrxR” (Eur J Med Chem, 2022).
pIC50: −log10 of the molar value. Active and inactive are the calls of the source. The calls are words filed in the database; no cut-off is given here.

How the values were obtained:
[1] = Cytotoxicity against human HUVEC cells assessed as reduction in cell viability incubated for 48 hrs by MTT assay; assay type: toxicity, cell-based
[2] = test system: MCF7; assay: Antiproliferative activity against human MCF7 cells assessed as reduction in cell viability incubated for 48 hrs by MTT assay; assay type: functional, cell-based; settings: MCF7, 48 h
[3] = test system: A2780; assay: Antiproliferative activity against human A2780 cells assessed as reduction in cell viability incubated for 48 hrs by MTT assay; assay type: functional, cell-based; settings: A2780, 48 h
[4] = test system: HeLa; assay: Antiproliferative activity against human HeLa cells assessed as reduction in cell viability incubated for 48 hrs by MTT assay; assay type: functional, cell-based
[5] = test system: MHCC97H; assay: Antiproliferative activity against human MHCC97H cells assessed as reduction in cell viability incubated for 48 hrs by MTT assay; assay type: functional, cell-based
[6] = Cytotoxicity against human HLF cells assessed as reduction in cell viability incubated for 48 hrs by MTT assay; assay type: toxicity, cell-based
[7] = Selectivity ratio, ratio of IC50 for cytotoxicity against human L02 cells to IC50 for antiproliferative activity against human MHCC97H cells; assay type: toxicity, cell-based; settings: L02 cells versus MHCC97H cells, read-out: Ratio IC50
[8] = Antiproliferative activity against vincristine resistant human HCT-8/VCR cells assessed as reduction in cell viability incubated for 48 hrs by MTT assay; assay type: functional, cell-based
[9] = Antiproliferative activity against paclitaxel resistant human A2780/PTX cells assessed as reduction in cell viability incubated for 48 hrs by MTT assay; assay type: functional, cell-based
[10] = Resistance index, ratio of IC50 for antiproliferative activity against vincristine resistant human HCT-8/VCR cells to IC50 for antiproliferative activity against human HCT-8 cells; assay type: functional
[11] = Resistance index, ratio of IC50 for antiproliferative activity against paclitaxel resistant human A2780/PTX cells to IC50 for antiproliferative activity against human A2780 cells; assay type: functional
[12] = test system: MHCC97H; assay: Induction of morphological changes in human MHCC97H cells assessed as cell shrinkage at 5 to 50 nM incubated for 48 hrs by phase contrast microscopic analysis; assay type: functional, cell-based; settings: dose 5-50 nM
[13] = test system: HUVEC; assay: Induction of morphological changes in human HUVEC cells assessed as loss of cell interactions at 50 nM incubated for 48 hrs by phase contrast microscopic analysis; assay type: toxicity, cell-based; settings: 0.05 µM
[14] = biological target: Tubulin; assay: Inhibition of tubulin polymerization (unknown origin) assessed as decrease in fluorescence intensity incubated for 90 mins by DAPI staining based microplate reader analysis; assay type: protein-complex assay, Homo sapiens
[15] = biological target: T1, Tubulin (Homo sapiens) (UniProt P68371+Q9H4B7+P0DPH7+P68366+Q13509+Q71U36+P04350+Q3ZCM7+P07437+P68363+Q9BQE3+Q6PEY2+Q13885+Q9BVA1+Q9BUF5); assay: Disruption of microtubule network in human MHCC97H cells assessed as punctate morphology at 5 to 50 nM incubated for 24 hrs by Hoechst 33342 staining based confocal microscopy; assay type: cell-based; settings: dose 5-50 nM
[16] = biological target: T1, Tubulin (Homo sapiens); assay: Inhibition of colchicine binding to tubulin (unknown origin) at 2.50 uM by competitive binding assay relative to control; assay type: protein-complex assay; settings: dose 2.5 µM
[17] = biological target: T1, Tubulin (Homo sapiens); assay: Inhibition of colchicine binding to tubulin (unknown origin) at 5.0 uM by competitive binding assay relative to control; assay type: protein-complex assay
[18] = Inhibition of TrxR (unknown origin) using DTNB as substrate incubated for 5 mins in presence of NADPH followed by substrate addition by microplate reader analysis; design: species or system Homo sapiens
[19] = organism: Homo sapiens; assay: Irreversible inhibition of TrxR (unknown origin) using DTNB as substrate at 2.5 uM incubated for 2 hrs in presence of NADPH followed by substrate addition ultrafiltration based microplate reader analysis relative to control
[20] = organism: Homo sapiens; assay: Irreversible inhibition of TrxR (unknown origin) using DTNB as substrate at 5 uM incubated for 2 hrs in presence of NADPH followed by substrate addition ultrafiltration based microplate reader analysis relative to control
[21] = organism: Homo sapiens; assay: Irreversible inhibition of TrxR (unknown origin) using DTNB as substrate at 10 uM incubated for 2 hrs in presence of NADPH followed by substrate addition ultrafiltration based microplate reader analysis relative to control
[22] = test system: MHCC97H; assay: Downregulation of TrxR in human MHCC97H cells at 5 to 50 nM incubated for 48 hrs by Western blot analysis; assay type: functional, cell-based; settings: dose 5-50 nM
[23] = test system: A2780/PTX; assay: Downregulation of TrxR in paclitaxel resistant human A2780/PTX cells at 10 to 50 nM incubated for 48 hrs by Western blot analysis; assay type: functional, cell-based; settings: dose 10-50 nM
[24] = test system: MHCC97H; assay: Induction of ROS production in human MHCC97H cells assessed as increase in accumulation ROS level at 5 to 50 nM incubated for 4 hrs by DCFH-DA staining based fluorescence microscopy; assay type: functional, cell-based; settings: dose 5-50 nM
[25] = test system: MHCC97H; assay: Induction of oxidative stress in human MHCC97H cells assessed as increase in superoxide anion level at 5 to 50 nM incubated for 4 hrs by DHE based fluorescence microscopy; assay type: functional, cell-based; settings: dose 5-50 nM
[26] = test system: MHCC97H; assay: Induction of apoptosis in human MHCC97H cells assessed as decrease in MMP level incubated for 24 hrs by JC-1 staining based fluorescence microscopy; assay type: functional, cell-based; settings: dose 5-50 nM, DDE = dose-dependent effect
[27] = test system: MHCC97H; assay: Induction of apoptosis in human MHCC97H cells assessed as nucleus shrinkage at 5 to 50 nM incubated for 24 hrs by Hoechst 33342 staining based fluorescence microscopy; assay type: functional, cell-based; settings: dose 5-50 nM
[28] = test system: MHCC97H; assay: Induction of apoptosis in human MHCC97H cells assessed as increase in total apoptotic cells incubated for 24 to 48 hrs by Annexin V-FITC/PI staining based flow cytometry method; assay type: functional, cell-based; settings: dose 5-50 nM, time 24-48 hrs, DDE = dose-dependent effect
[29] = test system: MHCC97H; assay: Induction of apoptosis in human MHCC97H cells assessed as increase in total apoptotic cells at 5 to 50 nM by Annexin V-FITC/PI staining based flow cytometry method; assay type: functional, cell-based; settings: dose 5-50 nM, time 24-48 hrs, TDE = time-dependent effect
[30] = test system: MHCC97H; assay: Induction of apoptosis in human MHCC97H cells assessed as downregulation of Bcl-xl expression at 5 to 50 nM measured after 24 to 48 hrs by Western blot analysis; assay type: functional, cell-based; settings: dose 5-50 nM, time 24-48 hrs
[31] = test system: MHCC97H; assay: Induction of apoptosis in human MHCC97H cells assessed as upregulation of Bad expression measured after 24 to 48 hrs by Western blot analysis; assay type: functional, cell-based; settings: dose 5-50 nM, time 24-48 hrs, DDE = dose-dependent effect
[32] = Toxicity in BALB/c mouse xenografted with human MHCC97H cells assessed as change in body weight at 30 mg/kg, ip administered every other day for 30 days; assay type: organism-based; settings: in vivo, 720 h, time 30 day
[33] = test system: MHCC97H; assay: Antitumor activity against human MHCC97H cells xenografted in BALB/c mouse assessed as tumor weight at 30 mg/kg, ip administered every other day for 30 days; assay type: functional; settings: time 30 day
[34] = test system: MHCC97H; assay: Antitumor activity against human MHCC97H cells xenografted in BALB/c mouse assessed as tumor volume at 30 mg/kg, ip administered every other day for 30 days; assay type: functional; settings: time 30 day
[35] = biological target: T1, Tubulin (Homo sapiens); assay: Binding affinity to tubulin (unknown origin) assessed as reduction in peak area in the filtrate at 30 uM incubated for 1 hr by HPLC analysis; assay type: protein-complex assay
[36] = biological target: T1, Tubulin (Homo sapiens); assay: Induction of microtubule disruption in human MHCC97H cells assessed as occurence of cell shrinkage at 10 nM incubated for 8 hrs followed by compound washout and measured after 24 hrs by immunofluorescence based confocal microscopic analysis

Structure (SMILES): COc1ccc2c(/C=C(\C)C(=O)c3cc(OC)c(OC)c([Se]C)c3)c[nH]c2c1
- IC50 at 48 h [1]: 0.056 µM
- pIC50 [2]: 7.46
- pIC50 [3]: 7.74
- pIC50 [4]: 7.68
- pIC50 [5]: 8.22
- IC50 at 48 h [6]: 2.37 µM
- selectivity ratio [7]: 66.3
- pIC50 [8]: 7.35
- pIC50 [9]: 7.70
- Ratio IC50 [10]: 1.56
- Ratio IC50 [11]: 1.11
- Activity [12]: Active
- Activity [13]: Toxic
- pIC50 [14]: 6.09
- Activity [15]: Active
- inhibition [16]: 46.7%
- inhibition [17]: 86.8%
- pIC50 [18]: 5.43
- inhibition [19]: 58.4%
- inhibition [20]: 84%
- inhibition [21]: 91.4%
- Activity [22]: Active
- Activity [23]: Active
- Activity [24]: Active
- Activity [25]: Active
- Activity [26]: Dde
- Activity [27]: Active
- Activity [28]: Dde
- Activity [29]: Tde
- Activity [30]: Active
- Activity [31]: Dde
- Activity [32]: Non-Toxic
- Activity [33]: 0.453 g
- Activity [34]: 419.7 mm3
- Activity [35]: Active
- Activity [36]: Active
